From the supplement of paper PMC11003180

Columns and labels:
Assay in all cases: drug sensitivity score (DSS) from 5-dose viability curve (DSS (area-based score, 0 = no response)); higher = more sensitive (stronger viability inhibition); extreme values may be limits of the assay
[1] = system: MDCK wild-type + doxycycline; details: doxycycline: 10 ng/mL; 72 h
Procedure, shortened: (§1)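 After 72 h at 37 °C on 384-well plates pre-spotted with 528 oncology drugs at five doses (1-10,000 nM), parental and doxycycline-inducible MDCK cells were assessed; both lines had been given 10 ng/mL doxycycline in the medium before seeding at 2000 cells/well. Viability was taken from CellTiter-Glo luminescence scaled per plate to vehicle and positive controls, and drug sensitivity scores were derived from dose-response fits in the Breeze pipeline.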

[2] = system: MDCK p60AmotL2-inducible + doxycycline (p60AmotL2 expressing); details: doxycycline: 10 ng/mL; 72 h
Procedure, shortened: as §1

[3] = system: MDCK wild-type - doxycycline; details: doxycycline: none; 72 h
Procedure, shortened: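 Viability of parental MDCK cells cultured without doxycycline was measured by CellTiter-Glo luminescence and scaled per plate between vehicle and positive controls. The cells had been exposed for 72 h to an oncology library of 528 drugs at five doses (1-10,000 nM). Drug sensitivity scores were calculated from dose-response curve fits in the Breeze pipeline.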

SMILES	drug sensitivity score [1]	drug sensitivity score [2]	drug sensitivity score [3]
CN(C)C[C@@H]1CCn2cc(c3ccccc32)C2=C(C(=O)NC2=O)c2cn(c3ccccc23)CCO1 [Ruboxistaurin]	5.5	5.8	5.8
Cc1nn(C)c(COc2ccc(N3CCN(S(=O)(=O)N(C)C)CC3)cc2)c1-c1cccc2c(CCCOc3cccc4ccccc34)c(C(=O)O)n(CCN3CCOCC3)c12	5.3	5.3	5.1
CC(C)(C)c1cnc(CSc2cnc(NC(=O)C3CCNCC3)s2)o1 [SNS-032]	17.8	19.1	16.3
COc1cc(CCc2cc(NC(=O)c3ccc(N4CC(C)NC(C)C4)cc3)n[nH]2)cc(OC)c1 (configuration not stated) [AZD4547]	0	0	0
NC1(c2ccc(-c3nc4ccn5c(=O)[nH]nc5c4cc3-c3ccccc3)cc2)CCC1 [MK-2206]	0	0	0
NC(=O)NO [Hydroxyurea]	0	0	2
Oc1nc(-c2ccc(C(F)(F)F)cc2)nc2c1CSCC2 [XAV-939]	0	0	0
CCCCC(=O)OCC(=O)[C@]1(O)Cc2c(O)c3c(c(O)c2[C@@H](O[C@H]2C[C@H](NC(=O)C(F)(F)F)[C@H](O)[C@H](C)O2)C1)C(=O)c1c(OC)cccc1C3=O [Valrubicin]	8.8	12.9	5.7
CC(C)c1c(C(=O)Nc2ccccc2)c(-c2ccccc2)c(-c2ccc(F)cc2)n1CC[C@@H](O)C[C@@H](O)CC(=O)O [Atorvastatin]	0	0.4	0
C=CCN(/C=C1/C(=O)O[C@H](COC)[C@@]2(C)C1=C(O)C(=O)C1=C2[C@H](OC(C)=O)C[C@]2(C)C(=O)CC[C@@H]12)CC=C [Sonolisib]	0	0	0
Cc1nc(Nc2n[nH]c3c2CN(C(=O)N[C@H](CN(C)C)c2ccccc2)C3(C)C)c2sccc2n1	18	22.1	12.4
Cc1cc(Nc2nc(N[C@@H](C)c3ncc(F)cn3)ncc2Cl)[nH]n1 [AZD1480]	0	0.2	0
Nc1nc(N)c2nc(-c3cccc(O)c3)c(-c3cccc(O)c3)nc2n1 [TG100-115]	0	0	0
CC[C@@H]1CN(C(=O)NCC(F)(F)F)C[C@@H]1c1cnc2cnc3[nH]ccc3n12 [Upadacitinib]	0	0	0
CC[C@@H](C(=O)[C@@H](C)[C@@H](O)[C@H](C)[C@@H]1O[C@@H]([C@@H](CC)C(=O)O)CC[C@@H]1C)[C@H]1O[C@]2(C=C[C@@H](O)[C@]3(CC[C@@](C)([C@H]4CC[C@](O)(CC)[C@H](C)O4)O3)O2)[C@H](C)C[C@@H]1C [Salinomycin]	0.9	18.7	0.4
COc1cc2ncnc(Nc3ccc(F)c(Cl)c3)c2cc1OCCCN1CCOCC1 [Gefitinib]	1.5	17.9	3.2
C[C@@H]1C=C2C(=O)O[C@@H]3CC[C@H](C1)[C@]23O [Galiellalactone]	2	2.5	4.3
COC(=O)c1ccc2c(c1)[nH]c1ncnc(NCCCN3CCCCC3)c12 [UM729]	0.9	3	0
CC1(C)CNc2cc(NC(=O)c3cccnc3NCc3ccncc3)ccc21 [Motesanib]	0	0	0
